Data as given in patent publication US7612064B2, “Sulfopyrroles” (Takeda Pharmaceutical Company Limited, priority 2003, dated 2009).

How the values were obtained:
[1] = Hoechst 33342 nuclear staining; format: cell-based; conditions: for Hoechst 33342 nuclear staining score, HeLa: HeLa cells; for Hoechst 33342 nuclear staining score, Jurkat: Jurkat cells; for Hoechst 33342 nuclear staining score, H460: H460 cells; for Hoechst 33342 nuclear staining score, Jily: Jily cells; for Hoechst 33342 nuclear staining score, MRC5: MRC5 cells;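 on all read-outs here: apoptotic nuclei scored 0 none 1 weak under 50% of cells 2 strong over 50% of cells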
Method in brief: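 After a further 30 min incubation, plates were inspected on a standard inverted fluorescence microscope. The fraction of apoptotic nuclei and other apoptosis-specific morphology were scored as 0 for no activity, 1 for weak activity in less than 50% of the cells, and 2 for strong activity in more than 50% of the cells.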

HeLa = assay: MTS proliferation assay; format: cell-based, human; conditions: 72 h
Method in brief: (§1)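 Viability read-out is MTS absorbance at 492 nm after 3 h reagent incubation. It follows 72 h culture-condition treatment at four final concentrations (10, 3, 1, 0.3 μM), compounds delivered in medium holding max 5% DMSO.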

Jurkat = assay: MTS proliferation assay; format: cell-based, human; conditions: 72 h
Method in brief: as §1

Jily = assay: MTS proliferation assay; format: cell-based; conditions: 72 h
Method in brief: as §1

MRC5 = assay: MTS proliferation assay; format: cell-based; conditions: MRC5, 72 h
Method in brief: as §1

## COc1cc(-c2cc(-c3ccc(S(N)(=O)=O)cc3)cn2S(=O)(=O)c2ccc(C)cc2)cc(OC)c1OC [Example 57]
[1]; conc 0.1
  Hoechst 33342 nuclear staining score, HeLa: 0
  Hoechst 33342 nuclear staining score, Jurkat: 0
  Hoechst 33342 nuclear staining score, PBLs: 0
[1]; conc 0.3
  Hoechst 33342 nuclear staining score, HeLa: 0
  Hoechst 33342 nuclear staining score, Jurkat: 0
  Hoechst 33342 nuclear staining score, PBLs: 0
[1]; conc 1
  Hoechst 33342 nuclear staining score, HeLa: 0
  Hoechst 33342 nuclear staining score, Jurkat: 1 (weak activity comprising less than 50% of the cells)
  Hoechst 33342 nuclear staining score, PBLs: 0
[1]; conc 3
  Hoechst 33342 nuclear staining score, HeLa: 2 (strong activity comprising more than 50% of the cells)
  Hoechst 33342 nuclear staining score, Jurkat: 2 (strong activity comprising more than 50% of the cells)
  Hoechst 33342 nuclear staining score, PBLs: 0
HeLa
  IC50: < 1 µM
Jurkat
  IC50: < 0.2 µM
Jily
  IC50: < 1 µM
MRC5
  IC50: < 1 µM

## COc1cc(-c2cc(-c3cncc(CN)c3)cn2S(=O)(=O)c2ccc(C)cc2)cc(OC)c1OC [Example 58]
[1]; conc 0.1
  Hoechst 33342 nuclear staining score, H460: 0
  Hoechst 33342 nuclear staining score, HeLa: 0
  Hoechst 33342 nuclear staining score, Jily: 0
  Hoechst 33342 nuclear staining score, Jurkat: 0
  Hoechst 33342 nuclear staining score, MRC5: 0
  Hoechst 33342 nuclear staining score, PBLs: 0
[1]; conc 0.3
  Hoechst 33342 nuclear staining score, H460: 0
  Hoechst 33342 nuclear staining score, HeLa: 0
  Hoechst 33342 nuclear staining score, Jily: 0
  Hoechst 33342 nuclear staining score, Jurkat: 2 (strong activity comprising more than 50% of the cells)
  Hoechst 33342 nuclear staining score, MRC5: 0
  Hoechst 33342 nuclear staining score, PBLs: 0
[1]; conc 1
  Hoechst 33342 nuclear staining score, H460: 2 (strong activity comprising more than 50% of the cells)
  Hoechst 33342 nuclear staining score, HeLa: 2 (strong activity comprising more than 50% of the cells)
  Hoechst 33342 nuclear staining score, Jily: 2 (strong activity comprising more than 50% of the cells)
  Hoechst 33342 nuclear staining score, Jurkat: 2 (strong activity comprising more than 50% of the cells)
  Hoechst 33342 nuclear staining score, MRC5: 1 (weak activity comprising less than 50% of the cells)
  Hoechst 33342 nuclear staining score, PBLs: 0
[1]; conc 3
  Hoechst 33342 nuclear staining score, H460: 2 (strong activity comprising more than 50% of the cells)
  Hoechst 33342 nuclear staining score, HeLa: 2 (strong activity comprising more than 50% of the cells)
  Hoechst 33342 nuclear staining score, Jily: 2 (strong activity comprising more than 50% of the cells)
  Hoechst 33342 nuclear staining score, Jurkat: 2 (strong activity comprising more than 50% of the cells)
  Hoechst 33342 nuclear staining score, MRC5: 2 (strong activity comprising more than 50% of the cells)
  Hoechst 33342 nuclear staining score, PBLs: 0
HeLa
  IC50: < 1 µM
Jurkat
  IC50: < 1 µM
Jily
  IC50: < 1 µM
MRC5
  IC50: > 1 µM

## NC(=O)c1cncc(-c2cc(-c3ccc4c(c3)OCO4)n(S(=O)(=O)c3cccc(Cl)c3)c2)c1 [Example 75]
[1]; conc 0.1
  Hoechst 33342 nuclear staining score, H460: 0
  Hoechst 33342 nuclear staining score, HeLa: 0
  Hoechst 33342 nuclear staining score, Jily: 0
  Hoechst 33342 nuclear staining score, Jurkat: 0
  Hoechst 33342 nuclear staining score, MRC5: 0
  Hoechst 33342 nuclear staining score, PBLs: 0
[1]; conc 0.3
  Hoechst 33342 nuclear staining score, H460: 0
  Hoechst 33342 nuclear staining score, HeLa: 0
  Hoechst 33342 nuclear staining score, Jily: 0
  Hoechst 33342 nuclear staining score, Jurkat: 0
  Hoechst 33342 nuclear staining score, MRC5: 0
  Hoechst 33342 nuclear staining score, PBLs: 0
[1]; conc 1
  Hoechst 33342 nuclear staining score, H460: 0
  Hoechst 33342 nuclear staining score, HeLa: 0
  Hoechst 33342 nuclear staining score, Jily: 0
  Hoechst 33342 nuclear staining score, Jurkat: 0
  Hoechst 33342 nuclear staining score, MRC5: 0
  Hoechst 33342 nuclear staining score, PBLs: 0
[1]; conc 3
  Hoechst 33342 nuclear staining score, H460: 0
  Hoechst 33342 nuclear staining score, HeLa: 0
  Hoechst 33342 nuclear staining score, Jily: 0
  Hoechst 33342 nuclear staining score, Jurkat: 0
  Hoechst 33342 nuclear staining score, MRC5: 0
  Hoechst 33342 nuclear staining score, PBLs: 0
HeLa
  IC50: > 1 µM
Jurkat
  IC50: > 1 µM
MRC5
  IC50: > 1 µM

## COc1cc(-c2cc(-c3cccnc3)cn2S(=O)(=O)c2ccc(OC(F)(F)F)cc2)cc(OC)c1OC [Example 77]
[1]; conc 0.1
  Hoechst 33342 nuclear staining score, H460: 0
  Hoechst 33342 nuclear staining score, HeLa: 0
  Hoechst 33342 nuclear staining score, Jily: 0
  Hoechst 33342 nuclear staining score, Jurkat: 0
  Hoechst 33342 nuclear staining score, MRC5: 0
  Hoechst 33342 nuclear staining score, PBLs: 0
[1]; conc 0.3
  Hoechst 33342 nuclear staining score, H460: 0
  Hoechst 33342 nuclear staining score, HeLa: 0
  Hoechst 33342 nuclear staining score, Jily: 0
  Hoechst 33342 nuclear staining score, Jurkat: 0
  Hoechst 33342 nuclear staining score, MRC5: 0
  Hoechst 33342 nuclear staining score, PBLs: 0
[1]; conc 1
  Hoechst 33342 nuclear staining score, H460: 0
  Hoechst 33342 nuclear staining score, HeLa: 0
  Hoechst 33342 nuclear staining score, Jily: 0
  Hoechst 33342 nuclear staining score, Jurkat: 0
  Hoechst 33342 nuclear staining score, MRC5: 0
  Hoechst 33342 nuclear staining score, PBLs: 0
[1]; conc 3
  Hoechst 33342 nuclear staining score, H460: 1 (weak activity comprising less than 50% of the cells)
  Hoechst 33342 nuclear staining score, HeLa: 0
  Hoechst 33342 nuclear staining score, Jily: 1 (weak activity comprising less than 50% of the cells)
  Hoechst 33342 nuclear staining score, Jurkat: 2 (strong activity comprising more than 50% of the cells)
  Hoechst 33342 nuclear staining score, MRC5: 0
  Hoechst 33342 nuclear staining score, PBLs: 0
HeLa
  IC50: > 1 µM
Jurkat
  IC50: > 1 µM
MRC5
  IC50: > 1 µM

## CCCCOc1ccc(S(=O)(=O)n2cc(-c3cccnc3)cc2-c2cc(OC)c(OC)c(OC)c2)cc1 [Example 78]
[1]; conc 0.1
  Hoechst 33342 nuclear staining score, H460: 0
  Hoechst 33342 nuclear staining score, HeLa: 0
  Hoechst 33342 nuclear staining score, Jily: 0
  Hoechst 33342 nuclear staining score, Jurkat: 0
  Hoechst 33342 nuclear staining score, MRC5: 0
  Hoechst 33342 nuclear staining score, PBLs: 0
[1]; conc 0.3
  Hoechst 33342 nuclear staining score, H460: 0
  Hoechst 33342 nuclear staining score, HeLa: 0
  Hoechst 33342 nuclear staining score, Jily: 0
  Hoechst 33342 nuclear staining score, Jurkat: 0
  Hoechst 33342 nuclear staining score, MRC5: 0
  Hoechst 33342 nuclear staining score, PBLs: 0
[1]; conc 1
  Hoechst 33342 nuclear staining score, H460: 0
  Hoechst 33342 nuclear staining score, HeLa: 0
  Hoechst 33342 nuclear staining score, Jily: 0
  Hoechst 33342 nuclear staining score, Jurkat: 0
  Hoechst 33342 nuclear staining score, MRC5: 0
  Hoechst 33342 nuclear staining score, PBLs: 0
[1]; conc 3
  Hoechst 33342 nuclear staining score, H460: 0
  Hoechst 33342 nuclear staining score, HeLa: 0
  Hoechst 33342 nuclear staining score, Jily: 0
  Hoechst 33342 nuclear staining score, Jurkat: 0
  Hoechst 33342 nuclear staining score, MRC5: 0
  Hoechst 33342 nuclear staining score, PBLs: 0
HeLa
  IC50: > 1 µM
Jurkat
  IC50: > 1 µM
MRC5
  IC50: > 1 µM
